What was measured:
Candida vulvovaginitis = tested on: Candida vulvovaginitis
Experimental: The treatment was by topical administration of suitable pharmaceutical substance combinations on the skin, or on the mucosae of the genitourinary tract and of the oropharynx, respectively. […]
(§1) Therapy with an ointment combination of Clotrimazole/Diclofenac-Na
Single dose: 5 mg of Diclofenac-Na/20 mg of Clotrimazole
Dosage regimen: initially (3 days) 3×/day ointment strips of 2.5 cm locally applied in vulva and vagina, subsequently once per day, for 4 days.
patient, suffering from chronic-recurrent Candida vulvovaginitis for years (>10 recurrences/year), otherwise healthy, prior treatment both topical (Clotrimazole, Miconazole) and systemically (Fluconazole, several times, also long-term therapy and therapy of the partner).
Initial therapy: Clotrimazole/Diclofenac (25/25 mg) supp. for 2 days, subsequently
Clotrimazole/Diclofenac as ointment as described in Case 1, for 3 days. […]

[1] = tested on: diaper thrush (Candida mycosis)
Source text: The treatment was by topical administration of suitable pharmaceutical substance combinations on the skin, or on the mucosae of the genitourinary tract and of the oropharynx, respectively.
as §1

[2] = tested on: chronic-recurrent vulvovaginitis; conditions: Fluconazol 150 mg orally, long-term regimen; cited from earlier work

Structure (SMILES)	response to local treatment (monotherapy) (Candida vulvovaginitis; Case 1, during pregnancy, before the combination therapy)	response to monotherapy (Candida vulvovaginitis; Case 2, 8 days of therapy, before the combination therapy)	improvement by conventional local therapy (summary) (Candida vulvovaginitis; first and third cases)	course of curing under monotherapy (summary) (Candida vulvovaginitis; second case, 8 days of intensive therapy)	clinical picture under monotherapy (summary) ([1]; first diaper thrush case)	healing under monotherapy (summary) ([1]; second (mild) diaper thrush case)	cases that become recurrent after discontinuation [2]
Clc1ccccc1C(c1ccccc1)(c1ccccc1)n1ccnc1 [Clotrimazole]	complete therapy resistance	low-grade improvement	no improvement	highly retarded	marked deterioration	healing after three days	
OC(Cn1cncn1)(Cn1cncn1)c1ccc(F)cc1F [Fluconazol]							about 50%

From patent US8815925B2, “Use of combination preparations comprising antifungal agents” (priority 2006, dated 2014)
